Source: patent US6649644B1, “Method of treating HIV infection by combined use of a cytotoxic agent and a non-nucleoside reverse transcriptase inhibitor” (priority 1998, dated 2003)
Like-named read-outs stand apart in the source and are kept apart here.

Experiments:
HIV-1 (RF strain) [1] = assay type: cell-based; conditions: for Infectious Centers (Day 8), p24: single agent, PBMCs washed, co-cultivated with MT-2, Table 2
HIV-1 (RF strain) [2] = assay type: cell-based; conditions: for HIV Replication (Day 4), p24: single agent, human PBMCs, Table 2; for changes in the level of HIV p24 after either 4 or 8 days: single agents at the concentrations of Table 2
Protocol: Freshly isolated human blood lymphocytes and monocytes were infected with HIV-1 (RF strain) and then incubated for an additional 3 days in the presence of compounds alone or in combinations or left untreated. At the end of 4 days, the infected cells were briefly centrifuged. The supernatant was collected and used to titer HIV p24, using an enzyme-linked immunosorbent assay (ELISA). The cell pellets were washed two times with medium lacking any inhibitors, and the washed human peripheral blood mononuclear cells (PBMCs) were mixed 1:1 with MT-2 lymphocytes and incubated for an additional 4 days absent any inhibitors. All cells were then removed by centrifugation and the supernatant was again assayed for p24 levels by ELISA.
Viral p24 produced by HIV-1 (RF) infected cells was quantified to determine the effects of a cytotoxic drug and efavirenz alone or in combination. On day one, 5.25×10^e6 donor PBMCs (stimulated by PHA/IL-2 for 72 hours in RPMI tissue culture medium were centrifuged at 1,000 rpm for 10 minutes and the supernatant fluid was decanted. Using 50% tissue culture infectious dose (TCID50) estimated from the viral stock titration procedure (PRR 97-04), 5.25×10^6 PBMCs were infected with 5.2×10^3 TCID50 of virus (M. O. I. ˜0.001). Cells were resuspended, the virus stock added, and incubated at 37° C. for one hour. RPMI was added to the infected PBMCs and unabsorbed virus in the supernatant fluid was removed following centrifugation. The cells were resuspended in 10 mL RPMI (20% FCS, 30 units IL-2/mL) and placed in a 25 cm^2 tissue culture flask. The virus control flask contained infected cells only. Similar flasks contained efavirenz or the cytotoxic drug added separately or in combination. Flasks were incubated at 37° C., in 5% CO2 for 3 days. On day 4, the contents of each flask were centrifuged and the supernatant, inactivated with 0.5% Triton X-100, was frozen at −70° C. for p24 analysis. The infected PBMCs were resuspended in RPMI, centrifuged again, and the supernatant discarded to remove residual drugs. The pellets were resuspended in each flask, and 1×10^e6 MT-2 cells were added. The final volume was 10 mL RPMI (5% FCS) per flask. After 4 more days of incubation (day 8), supernatant from each flask was inactivated with Triton X-100 and frozen at −70° C. The p24 antigen concentration of viral supernatants from days 4 and 8 was determined using the NEN Life Science Products HIV-1 p24 antigen capture assay.

[3] = Toxicity of compounds for uninfected MT-2 cells (MTT assay); conditions: human
From the text: (§1) In order to test whether some external death stimuli, which are independent of bcl-2 (Reed, 1994), may not selectively kill HIV-infected cells, we exposed uninfected and HIV-infected cells to various chemical toxins, including losoxantrone, bisnafide, etoposide and hydroxyurea. […] Therefore, we proceeded to examine whether either losoxantrone or etoposide were able to selectively kill HIV-infected cells.
(§2) The concentration of the cytotoxic drugs losoxantrone, etoposide or hydroxyurea required to reduce cell viability by 50% (TC50) was determined with or without virus infection. Graded concentrations of drug in RPMI (5% FCS) were added to a 96-well microtiter plate. 1×10^e5 cells were added per well. Cell control wells contained cells in RPMI only. Plates were incubated at 37° C., 5% CO2 for 3 days. The tetrazolium dye (3-4,5-dimethylthiazol-2yl)-2,5-diphenyltetrazolium bromide (MTT) was used to assess the number of viable cells. After the 3-day incubation period, 10 μL of MTT (5 mg/mL in 1×PBS) was added to each well. Following a 2 hour incubation at 37° C., 150 μL was removed from each well and 200 μL of 0.04 N HCl in isopropanol was added. The contents of each well were mixed and the quantity of reduced dye was measured by absorbance at 570 nm. The concentration of compound producing a 50% reduction in signal relative to the untreated cultures (TC50) was determined.

[4] = tested on: human T-lymphocytes (MT-2) infected with HIV-1; test: Toxicity of compounds for HIV-1-infected MT-2 cells (MTT assay); conditions: for killing of infected cells relative to uninfected lymphocytes: after 24 hours, losoxantrone 10 nM, etoposide 100 nM
From the text: as §1
as §2, with “Plates were incubated at 37° C., 5% CO2 for 3 days.” left out, “After the 3-day incubation period, 10 μL of MTT (5 mg/mL in 1×PBS) was added to each well.” left out

[5] = tested on: human T-lymphocytes (MT-2); test: Toxicity of compounds for uninfected MT-2 cells (MTT assay)
From the text: as §1, §2

PBMC = test: Inhibition of PBMC cell division; assay type: cell-based, human; conditions: 100 μM
[6] = Homo sapiens, T-lymphocyte, read-out: Viable Cells (% Remaining) +HIV

| Structure (SMILES) | Infectious Centers (Day 8), p24 (HIV-1 (RF strain) [1]; 10 nM) [pg/mL] | HIV Replication (Day 4), p24 (HIV-1 (RF strain) [2]; 10 nM) [pg/mL] | changes in the level of HIV p24 after either 4 or 8 days (HIV-1 (RF strain) [2]) | viability at 0.01 µM [4, 6] [%] | killing of infected cells relative to uninfected lymphocytes [4] [fold] | also measured |
| --- | --- | --- | --- | --- | --- | --- |
| O=C1Nc2ccc(Cl)cc2[C@@](C#CC2CC2)(C(F)(F)F)O1 [efavirenz] | 200000 | 15000 | only small changes | 82 | – | viability at 24 h, 0.01 µM ([3]; uninfected MT-2 T-lymphocytes): 81% |
| O=C1c2c(O)cccc2-c2nn(CCNCCO)c3ccc(NCCNCCO)c1c23 [losoxantrone] | 700000 | 200000 | only small changes | 4 | 5 | increase in p24 titers (HIV-1 (RF strain) [2]; 10 nM, days 4 and 8): 3 to 7 fold; viability at 24 h, 0.01 µM [3]: 68%; concentration with evidence of substantial toxicity to uninfected cells [5]: ≥ 10 nM; range of concentrations that show selectivity for infected cells ([4]; cell survival, infected vs. control cells): 0.1 to 10 nM |
| NC(=O)NO [hydroxyurea] | – | – | – | – | – | inhibition of PBMC cell division (PBMC): 3 fold |
| Nc1cccc(CN2C(=O)N(Cc3cccc(N)c3)[C@H](Cc3ccccc3)[C@H](O)[C@@H](O)[C@H]2Cc2ccccc2)c1 [Compound E, [4R-(4α, 5α, 6β, 7β]-1,3-bis (3-aminophenylmethyl]hexahydro-5,6-dihydroxy-4,7-bis (phenlymethyl-2H-1,3-diazepin-2-one dimethylsulfonate] | – | – | only small changes | – | – | Infectious Centers (Day 8), p24 (HIV-1 (RF strain) [1]; 100 nM): 350000 pg/mL; HIV Replication (Day 4), p24 (HIV-1 (RF strain) [2]; 100 nM): 25000 pg/mL |
| COc1cc([C@@H]2c3cc4c(cc3[C@@H](O[C@@H]3O[C@@H]5CO[C@@H](C)O[C@H]5[C@H](O)[C@H]3O)[C@H]3COC(=O)[C@H]23)OCO4)cc(OC)c1O [etoposide] | – | – | – | – | 6 | p24 results when substituted for losoxantrone (HIV-1 (RF strain) [1]; compared with the losoxantrone results, not shown): very similar; viability at 24 h, 0.1 µM [3]: 71%; viability at 0.1 µM [4, 6]: 12% |
